Source: patent US10500288B2, “Cytotoxic HEXIM1 peptides and uses thereof” (AGENCY FOR SCIENCE, TECHNOLOGY AND RESEARCH, priority 2015, dated 2019)
Square brackets hold non-standard residues; d marks the D form. Ends that are not written are not given here. Peptide text beside a SMILES is read from it.

Legend:
[1] = system: HCT116 (p53 KO) cells; assay: Time-lapse DIC live cell imaging, HCT116 (p53 KO); type: cell-based, human; conditions: 30 μM, within minutes
Description: (§1) HCT116 (p53 WT) and HCT116 (p53 KO) cells were cultured on glass slides overnight, treated with vehicle control (0.5% dimethyl sulfoxide (DMSO)) or the indicated FGF peptides (30 μM). Time-lapse DIC imaging highlights dynamic morphological changes in treated HCT116 cells by spinning disk confocal microscopy. […] In contrast, FGF-BR peptide rapidly induces drastic changes to the cell morphology with rupturing of the plasma membrane accompanied with damages to the nuclear membrane and abnormalities to the nucleolus in both cell types. (B) cytotoxicity fluorescence plots of breast cancer cells MCF7 showing the effect of pan-caspase inhibitor z-VAD-Fmk on cells treated with LTV-tagged BR peptide. LTV is a breast cancer cell targeting peptide. MCF7 cells were incubated with or without z-VAD-Fmk (for 90 min) and then with indicated LTV-tagged peptides (30 μM) for thirty minutes at 37° C. Cells treated with LTV-X13 peptide (SEQ ID NO: 14) or vehicles, DMSO (0.5%), were used as negative controls. Treated cells were subjected to the cytotoxicity assay as described in Example 9—Materials and Methods. Data representative of at least three independent experiments performed in triplicate were shown with values expressed as mean±SD.
(§2) The mechanism of cell death induced by the HEXIM1 BR peptide was examined. […]

[2] = system: HCT116 (p53 WT) cells; assay: Time-lapse DIC live cell imaging, HCT116 (p53 WT); type: cell-based, human; conditions: 30 μM, within minutes
Description: as §1, §2

[3] = system: human foreskin fibroblasts (HFF); assay: Cell viability (Cell-Titer Glo) in human foreskin fibroblasts; type: cell-based; conditions: HFF normal fibroblasts; overnight, various concentrations
Description: (§3) Human cell lines including HeLa, HEK293, MCF7, MDA-MB-231, CHO-K1, OPM-2, and WI-38 were obtained from American Type Culture Collection. AML2 and AML3 cells were purchased from Deutsche Sammlung von Mikroorganismen und Zellkulturen. HCT116 p53+/+ and p53−/− cells were kindly given by Dr. Bert Vogelstein. Primary human foreskin fibroblasts (HFF) were obtained from Dr. Mark Stinski. […] MDA-MB-231 and OPM-2 cells were cultured in RPMI-1640 (Gibco) containing 10% FBS and 1% penicillin/streptomycin. All cells were routinely maintained in a 37° C. incubator with 5% CO2.
(§4) Cells were plated in clear-bottomed white walled 96-well plates (Corning) and incubated overnight. Cells were treated with indicated peptides in 1% FBS-containing media for overnight or indicated timings at 37° C. Cell viability was measured with CellTiter-Glo reagent (Promega) according to the manufacturer's instructions. For cytotoxicity assay, cells were plated in black walled 96-well plates (Corning) to allow them to adhere overnight. Upon treatment with a pan-caspase inhibitor, z-VAD-Fmk ([…]) (Sigma) and subsequent treatment with LTV-tagged peptides, cytotoxicity induced was determined by CellTox cytotoxicity assay (Promega) 30 minutes after addition of peptides according to the manufacturer's instructions. Luminescence was determined using an Infinite 200 multiplate reader (Tecan).

[4] = system: MCF7 cells; assay: Cell viability (Cell-Titer Glo) in MCF7 breast cancer cells; type: cell-based, human; conditions: overnight, different concentrations
Description: as §3, §4

[5] = system: MDA-MB-231 cells; assay: Cell viability (Cell-Titer Glo) in MDA-MB-231 breast cancer cells; type: cell-based, human; conditions: overnight, different concentrations
Description: as §3, §4

[6] = molecular target: T1, NPM (Homo sapiens, UniProt P06748); assay: Immunofluorescence of NPM sub-cellular localization, HCT116 (p53 WT); type: cell-based; conditions: 30 μM
T1 construct: FGF-tagged BR peptide alters the sub-cellular localization and protein level of endogenous NPM; endogenous in cells; host or cells: HCT116 (p53 WT) and HCT116 (p53 KO)
T1 sequence (P06748 whole entry): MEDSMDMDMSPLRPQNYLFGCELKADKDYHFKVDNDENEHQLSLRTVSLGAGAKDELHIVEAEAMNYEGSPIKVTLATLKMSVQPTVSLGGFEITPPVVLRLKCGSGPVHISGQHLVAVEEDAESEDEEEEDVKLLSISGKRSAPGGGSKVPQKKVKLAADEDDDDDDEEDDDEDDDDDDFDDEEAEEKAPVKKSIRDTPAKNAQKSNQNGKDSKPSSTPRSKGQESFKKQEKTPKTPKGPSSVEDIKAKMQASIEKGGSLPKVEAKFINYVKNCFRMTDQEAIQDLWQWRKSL
Description: (§5) (A) representative immunofluorescence images showing the sub-cellular localization of α-NPM (bar represents 10 μm). HCT116 (p53 WT) and HCT116 (p53KO) cells were cultured on glass slides overnight, treated with FGF-X13 or FGF-BR (30 μM). Cells treated with FGF-X13 peptide or vehicle, DMSO (0.5%), was used as controls. Treated cells were immunostained with an anti-NPM antibody and analyzed by laser scanning confocal microscopy (Zeiss). Nuclei were visualized by staining with 4′,6-diamidino-2-phenylindole (DAPI).
(§6) For staining with anti-NPM, cultured cells were fixed in 10% neutral buffered formalin (Sigma) for 10 min, and then in methanol for 10 min, washed in PBS and incubated with blocking buffer (PBS containing 0.5% bovine serum albumin) for 1 hour prior to incubation with a mouse anti-NPM antibody (Invitrogen) in blocking buffer for overnight at 4° C. Cells were then incubated with Alexa Fluor 488-conjugated secondary antibody (Jackson Immuno Research Laboratories) for 1 hour, washed three times with PBS and counterstained with 4′,6-diamidino-2-phenylindole (DAPI)-containing mounting solution (Vectashield). Stained cells were examined with a LSM 510 confocal microscope using a 63× objective lens (Zeiss).

[7] = molecular target: T1, NPM; assay: Immunofluorescence of NPM sub-cellular localization, HCT116 (p53 KO); type: cell-based; conditions: 30 μM
Description: as §5, §6

[8] = system: HCT116 (p53 KO) cells; assay: Cell viability (Cell-Titer Glo) in HCT116 (p53 KO); type: cell-based, human; conditions: overnight, various concentrations
Description: as §3, §4

[9] = system: HCT116 (p53 WT) cells; assay: Cell viability (Cell-Titer Glo) in HCT116 (p53 WT); type: cell-based, human; conditions: overnight, various concentrations
Description: as §3, §4

[10] = system: HeLa cells; assay: Cell viability (Cell-Titer Glo) in HeLa cells; type: cell-based, human; conditions: overnight, various concentrations
Description: as §3, §4

[11] = system: HEK293 cells; assay: Cell viability (Cell-Titer Glo) in HEK293 cells; type: cell-based, human; conditions: HEK293 normal cells; overnight, various concentrations
Description: as §3, §4

[12] = system: undifferentiated 3T3 mouse fibroblast cells
Description: (§7) 2.5×10^4 cells/ml of mouse fibroblast cells 3T3 were cultured in gelatin coated plates in Dulbecco's Modified Eagle Medium (DMEM) supplemented with 10% fetal bovine serum (FBS) and 1% penicillin/streptomycin (Gibco) to reach 100% confluent. The cells were then maintained at 100% confluency by supplementing with fresh media in a 37° C. incubator with 5% CO2 for 3 days. For induction, cells were then cultured in DMI Induction Media (which is DMEM supplemented with 10% fetal bovine serum, 1% penicillin/streptomycin, 0.1% 3-isobutyl-1-methylxanthine (sigma), 0.1% insulin (sigma) and 0.1% dexamethasone (sigma)) for 48 hours. The cells were then cultured in Insulin Induction Media (which is DMEM supplemented with 10% fetal bovine serum, 1% penicillin/streptomycin and 0.1% insulin). The insulin induction media was changed every 2 days until the cells were differentiated to adipose cells.
(§8) A D-form BR peptide with the sequence of [sequence] was tagged to a fat tissue targeting peptide of the sequence [sequence] (ATS peptide, SEQ ID NO: 39) to generate the ATS-BRD peptide of the sequence [sequence]([sequence])D (SEQ ID NO: 40). Both undifferentiated 3T3 cells and differentiated adipose cells were treated with the ATS-BRD peptide. ATS-tagged KLAD peptide was used as a positive control.

[13] = system: differentiated adipose cells (from 3T3)
Description: as §7, §8

Molecule: AAVALLPAVLLALLAP [FGF, cell membrane-translocating peptide derived from Kaposi fibroblast growth factor]
- morphological changes [1]: No effects were detected
- morphological changes [2]: No effects were detected

Molecule: CC(C)C[C@H](NC(=O)[C@H](CCCCN)NC(=O)CNC(=O)[C@H](CS)NC(=O)CNC(=O)[C@H](Cc1ccc(O)cc1)NC(=O)[C@H](Cc1c[nH]c2ccccc12)NC(=O)[C@@H]1CCCN1C(=O)[C@H](CO)NC(=O)[C@@H](NC(=O)[C@@H](NC(=O)[C@@H](N)CC(C)C)[C@@H](C)O)C(C)C)C(=O)N[C@@H](C)C(=O)N[C@@H](CCCCN)C(=O)N[C@@H](CC(C)C)C(=O)N[C@@H](C)C(=O)N[C@@H](CCCCN)C(=O)N[C@@H](CCCCN)C(=O)N[C@@H](CC(C)C)C(=O)N[C@@H](C)C(=O)N[C@@H](CCCCN)C(=O)N[C@@H](CC(C)C)C(=O)N[C@@H](C)C(=O)N[C@@H](CCCCN)C(=O)O [LTV-KLA, reference compound] (H-LTVSPWYGCGKLAKLAKKLAKLAK-OH)
- cytotoxicity (cell viability) [3]: non-specific killing

Molecule: QLGKKKHRRRPSKKKRHW (listed as Homo sapiens) [BR, untagged HEXIM1 basic region peptide]
- effect on cell viability [4]: no effect on cell viability
- effect on cell viability [5]: remained highly viable

Molecule: FGF-X13: negative control peptide, FGF-tagged X13 (AAVALLPAVLLALLAPMPFSTGKRIMLGE) [reference compound]
- sub-cellular localization of NPM [6]: Normal nucleolar localization of NPM
- sub-cellular localization of NPM [7]: Normal nucleolar localization of NPM
- cell death / cell viability [8]: no effects
- cell death / cell viability [9]: no effects

Molecule: FGF-BR-RRR12: FGF-fused BR peptide with all six HDM2 ubiquitinating lysine residues mutated to arginine (AAVALLPAVLLALLAPQLGRRRHRRRPSRRRRHW)
- cell death / cell viability [8]: stronger cell toxicity when compared to the wild-type FGF-BR peptide
- cell death / cell viability [9]: stronger cell toxicity when compared to the wild-type FGF-BR peptide

Molecule: LTV-X13: LTV-tagged X13 negative control peptide (LTVSPWYGCGMPFSTGKRIMLGE) [reference compound]
- effect on cell viability [4]: no effects were detected
- effect on cell viability [5]: no effects were detected

Molecule: KLA (KLAKLAKKLAKLAK) [reference compound]
- effect on cell viability [5]: non-specific killing

Molecule: FGF-BR-ILAA: FGF-fused BR peptide with KHRR motif mutated to ILAA (AAVALLPAVLLALLAPQLGKKILAARPSKKKRHW)
- cell death / cell viability [8]: still maintained its killing ability
- cell death / cell viability [9]: still maintained its killing ability

Molecule: LTV-BR-RRR12: breast cancer targeting peptide LTV fused to BR-RRR12 (LTVSPWYGCGQLGRRRHRRRPSRRRRHW)
- effect on cell viability [4]: anti-proliferation effects
- effect on cell viability [5]: anti-proliferation effects

Molecule: CC(C)C[C@H](NC(=O)[C@H](C)NC(=O)[C@H](CC(C)C)NC(=O)[C@H](CC(C)C)NC(=O)[C@@H](NC(=O)[C@H](C)NC(=O)[C@@H]1CCCN1C(=O)[C@H](CC(C)C)NC(=O)[C@H](CC(C)C)NC(=O)[C@H](C)NC(=O)[C@@H](NC(=O)[C@H](C)NC(=O)[C@H](C)N)C(C)C)C(C)C)C(=O)N[C@@H](CC(C)C)C(=O)N[C@@H](C)C(=O)N1CCC[C@H]1C(=O)N[C@@H](CCC(N)=O)C(=O)N[C@@H](CC(C)C)C(=O)NCC(=O)N[C@@H](CCCCN)C(=O)N[C@@H](CCCCN)C(=O)N[C@@H](CCCCN)C(=O)N[C@@H](Cc1c[nH]cn1)C(=O)N[C@@H](CCCNC(=N)N)C(=O)N[C@@H](CCCNC(=N)N)C(=O)N[C@@H](CCCNC(=N)N)C(=O)N1CCC[C@H]1C(=O)N[C@@H](CO)C(=O)N[C@@H](CCCCN)C(=O)N[C@@H](CCCCN)C(=O)N[C@@H](CCCCN)C(=O)N[C@@H](CCCNC(=N)N)C(=O)N[C@@H](Cc1c[nH]cn1)C(=O)N[C@@H](Cc1c[nH]c2ccccc12)C(=O)O [FGF-BR] (H-AAVALLPAVLLALLAPQLGKKKHRRRPSKKKRHW-OH)
- cytotoxicity (cell viability) [10]: Cytotoxicity was also observed
- cytotoxicity (cell viability) [11]: Comparable cytotoxicity
- cytotoxicity (cell viability) [3]: Comparable cytotoxicity

Molecule: X13: untagged negative control peptide (MPFSTGKRIMLGE) [reference compound]
- effect on cell viability [4]: no effect on cell viability
- effect on cell viability [5]: no effect on cell viability

Molecule: CKGGRAKDCGG(QLGKKKHRRRPSKKKRHW)D (CKGGRAKDCGG[dQ][dL]G[dK][dK][dK][dH][dR][dR][dR][dP][dS][dK][dK][dK][dR][dH][dW]; cysteine pairing not given here) [ATS-BRD]
- cytotoxic effect (cell viability) [12]: no cytotoxic effect
- cytotoxic effect (cell viability) [13]: significant cytotoxic effect

Molecule: QLGRRRHRRRPSRRRRHW (QLGRRRHRRRPSKKKRHW) [BR-RRR12, BR mutant in which all six HDM2 ubiquitinating lysine residues were mutated to arginine]
- effect on cell viability [4]: no effect on cell viability
- effect on cell viability [5]: remained highly viable
